Measurements: patent US20240011034A1, “INHIBITION OF miR-29b-3p TO ENHANCE NEURONAL SURVIVAL IN HUNTINGTON'S DISEASE” (Washington University, priority 2022, published 2024)

What was measured:
reprogrammed MSNs [1] = assay: CYTO-ID assay for accumulated autophagic vacuoles; assay type: cell-based, human; conditions: 0.5 μM vs DMSO, PID26
Source text: First, tandem monomeric mCherry-GFP-tagged LC3, previously shown to distinguish prefusion autophagic compartments from mature acidic autolysosomes based on the differential pH sensitivity of GFP versus mCherry, was used. […] CYTO-ID assay, a fluorescence-based live-cell assay for accumulated autophagic vacuoles, and immunostaining of p62/SQSTM1, a marker widely used to monitor autophagic activity due to its binding to LC3 and degradation during autophagy, were further performed. […] The difference in p62 between pre-HD-MSNs and HD-MSNs was also validated by immunoblot assay (FIG. 3I). Because caspase activation has been detected in HD, and cell death-related pathways (apoptosis and caspase) were enriched in the brown module, the levels of caspase activation between pre-HD-MSN and HD-MSNs were compared.

p62/SQSTM1 = p62/SQSTM1 immunostaining and immunoblot; assay type: cell-based, human; conditions: 0.5 μM vs DMSO, PID26
Experimental: (§1) Reprogrammed cells were fixed with 4% paraformaldehyde (Electron Microscopy Sciences, #15710) for 20 min at room temperature (RT), and permeabilized with 0.2% Triton X-100 for 10 min at RT. Cells were blocked with 5% BSA and 1% goat serum in PBS and incubated with primary antibodies at 4° C. overnight, then incubated with secondary antibodies for 1 hr at RT. Cells were incubated with DAPI (Sigma, D-9542) for 5 minutes followed by washing with PBS. Images were captured using a Leica SP5X white light laser confocal system with Leica Application Suite (LAS) Advanced Fluorescence 2.7.3.9723.
Cells were lysed in 2% SDS buffer. The concentrations of whole-cell lysates were measured using the Pierce BCA protein assay kit (Thermo Scientific, #23227). […]
First, tandem monomeric mCherry-GFP-tagged LC3, previously shown to distinguish prefusion autophagic compartments from mature acidic autolysosomes based on the differential pH sensitivity of GFP versus mCherry, was used. […] CYTO-ID assay, a fluorescence-based live-cell assay for accumulated autophagic vacuoles, and immunostaining of p62/SQSTM1, a marker widely used to monitor autophagic activity due to its binding to LC3 and degradation during autophagy, were further performed. […]

reprogrammed MSNs [2] = assay: tandem mCherry-GFP-LC3 reporter puncta quantification; assay type: cell-based, human; conditions: HD-MSNs, 0.5 μM vs DMSO
Experimental: FUW mCherry-GFP-LC3 used was Addgene plasm id # 110060; http://n2t.net/addgene:110060; RRID:Addgene_110060. The concentrated lentivirus of mCherry-GFP-LC3 was added to reprogrammed MSNs at PID20. For imaging of cells expressing mCherry-GFP-LC3, cells were washed once with PBS, fixed and stained by TUBB3 antibody, after verification of expression of GFP and mCherry by microscopy at PID26. Images were captured using a Leica SP5X white light laser confocal system with Leica Application Suite (LAS) Advanced Fluorescence 2.7.3.9723. For quantification of autophagosome (i.e., mCherry+, GFP+ puncta) and autolysosome (i.e., mCherry+, GFP− puncta) compartments in MSNs from multiple HD patients and control individuals, measurements were performed in cells having at least 3 puncta per cell.

reprogrammed MSNs [3] = assay: SYTOX assay (neuronal cell death); assay type: cell-based, human; conditions: for SYTOX-positive cells (beneficial effect): 0.5 μM vs DMSO
Experimental: 0.1 μM SYTOX gene nucleic acid stain (Invitrogen, S7020) and 1 μl/mL of Hoechst 33342 (Thermo Scientific, 66249) were added into cell medium. Samples were incubated for at least 30 mins at 37° C. prior to live-cell imaging. Images were taken using Leica DMI 4000B inverted microscope with Leica Application Suite (LAS) Advanced Fluorescence.

reprogrammed MSNs [4] = assay: Apoptosis assay in live cells (Caspase-3/7, Annexin V); assay type: cell-based, human; conditions: HD-MSNs, vs DMSO
Experimental: Reprogrammed cells grown in 96-well plates were treated with 1× Essen Bioscience IncuCyte® Caspase-3/7 Green Reagent (final concentration 5 μM) and 1× Essen Bioscience IncuCyte® Annexin V Green or Red Reagent on day 22 or 26. Image scheduling, collection, and analysis were conducted with the IncuCyte® S3 LiveCell Analysis System platform and IncuCyte S3 v2017A software. Treated plates were imaged every two hours for 7 days. At each timepoint, over 2 images were taken per well in brightfield, FITC, and TRITC channels. Images were analyzed for the number of green or red objects per well. For the apoptotic index, the number of green or red objects (i.n., fluorescence cells) divided by phase area (μm2) per well was quantified by the IncuCyte® S3 Live-Cell Analysis System.

HTT inclusion bodies = HTT inclusion bodies / mHTT aggregation by immunostaining; assay type: cell-based, human; conditions: HD-MSNs, 0.5 μM vs DMSO, PID30
Experimental: as §1

[5] = test system: α1-antitrypsin Z variant (ATZ); assay: Immunoblot of steady-state ATZ in HTO/Z cell line model of α1-antitrypsin deficiency; assay type: cell-based; conditions: 24 hr, 0.5 and 2.5 μM vs DMSO (0.5 μM: p=0.003)
Experimental: FIG. 7A-7H show autophagy activator rescues HD-MSNs from degeneration. […] The normalized intensity (bottom) was calculated from immunoblot images for 0.5 μM versus DMSO control (Individual data plotted, n=4; *p=0.003 by t-test; Mean±s.e.m.). FIG. 7C show representative images of p62 and TUBB3-positive cells (top) and quantification of p62 intensity per cell (bottom) at PID26 from multiple healthy control old and HD-MSNs treated with DMSO or 0.5 μM G2-115. Each dot represents one individual's reprogrammed MSN. Scale bars is 20 μm FIG. 7D show representative images of CYTO-ID staining (top) and quantification of CYTO-ID green signals (bottom) at PID26 from multiple healthy control old and HD-MSNs treated with DMSO or 0.5 μM G2-115. Each dot represents one individual's reprogrammed MSN. Scale bar is 20 μm FIG. 7E show representative images (top) and quantification (bottom) of SYTOX-positive cells as a fraction of Hoechst-positive cells in HD-MSN treated with DMSO or different concentration of G2-115 (0.125, 0.25, or 0.5 μM) (n=4). Scale bar is 20 μm. FIG. 7F show quantification of SYTOX-positive cells from multiple healthy control old and HD-MSNs treated with DMSO or 0.5 μM G2-115. […] FIG. 7G show Representative images (left) and quantification (right) of caspase3/7 activation (green) and Annexin V signal (green) from three independent HD-MSN lines treated with DMSO or 0.5 μM G2-115. […]

O=c1ccc2c(Cl)cc(Cl)cc2[nH]1 [G2-115, 5,7-dichloro-1H-quinolin-2-one]
number of autophagic vacuoles (CYTO-ID signals) (reprogrammed MSNs [1]; HD-MSNs): increased
number of autophagic vacuoles (CYTO-ID signals) (reprogrammed MSNs [1]; old Ctrl-MSNs): increased
p62/SQSTM1 signal (p62/SQSTM1; HD-MSNs): decreased
p62/SQSTM1 signal (p62/SQSTM1; old Ctrl-MSNs): decreased
average number of autolysosomes (reprogrammed MSNs [2]): increased
average number of autophagosomes (reprogrammed MSNs [2]): increased
HD-MSN survival (reduction of SYTOX signal) (reprogrammed MSNs [3]; HD-MSN, 0.125, 0.25 or 0.5 μM vs DMSO, treated from PID14 every four days for 16 days): promoted HD-MSN survival in a dose-dependent manner
SYTOX-positive cells (beneficial effect) (reprogrammed MSNs [3]; HD-MSNs from six independent patients): consistent in HD-MSNs from six independent patients
SYTOX-positive cells (beneficial effect) (reprogrammed MSNs [3]; age-matched (old) Ctrl-MSNs versus HD-MSNs): specific to HD-MSNs
Annexin V signal (reprogrammed MSNs [4]): reduced
Caspase 3/7 signal (reprogrammed MSNs [4]): reduced
number of HTT inclusion bodies (HTT inclusion bodies): reduced
steady-state levels of ATZ [5]: decreased
